Measurements reported in ChEMBL document CHEMBL3044944, “Synthesis and evaluation of meta substituted 1-(aryloxypropyl)-4-(chloroaryl) piperazines as potential atypical antipsychotics” (2013).
Active and inactive are the calls of the source. No cut-off for these calls is given here.

Legend:
Mus musculus [1] = experiment: Antipsychotic activity in Mus musculus albino lyka (mouse) assessed as reversal of apomorphine-induced stereotypy at 5 to 10 mg/kg, ip administered 10 min prior to apomorphine challenge measured after 10 to 30 min; format: functional, organism-based
Mus musculus [2] = experiment: Antipsychotic activity in ip dosed Mus musculus albino lyka (mouse) assessed as reversal of apomorphine-induced mesh climbing administered 10 min prior to apomorphine challenge measured after 10 to 30 min; format: functional; conditions: for ED50: Mus musculus, albino lyka, ip
Mus musculus [3] = experiment: Antipsychotic activity in Mus musculus albino lyka (mouse) assessed as reversal of apomorphine-induced mesh climbing at 5 to 10 mg/kg, ip administered 10 min prior to apomorphine challenge measured after 10 to 30 min; format: functional, organism-based

Compound | Activity (Mus musculus [1]) | logED50 (Mus musculus [2]) | ED50 (Mus musculus [2]) [mg/kg] | Activity (Mus musculus [3])
O=Cc1cccc(OCCCN2CCN(Cc3ccc(Cl)cc3)CC2)c1 | Active | 1 | 10 | 
CC(=O)c1cccc(OCCCN2CCN(C(=O)c3ccccc3Cl)CC2)c1 | Active |  |  | inactive
O=Cc1cccc(OCCCN2CCN(C(=O)c3ccccc3Cl)CC2)c1 | Active |  |  | inactive
CC(=O)c1cccc(OCCCN2CCN(C(=O)c3ccc(Cl)cc3)CC2)c1 | Active |  |  | inactive
CC(=O)c1cccc(OCCCN2CCN(Cc3ccccc3Cl)CC2)c1 | inactive | 0.903 | 8 | 
CC(=O)c1cccc(OCCCN2CCN(Cc3ccc(Cl)cc3)CC2)c1 | inactive | 0.857 | 7.2 | 
O=Cc1cccc(OCCCN2CCN(C(=O)c3ccc(Cl)cc3)CC2)c1 | Active |  |  | inactive
O=Cc1cccc(OCCCN2CCN(Cc3ccccc3Cl)CC2)c1 | inactive | 0.799 | 6.3 | 
